Measured values from PubChem BioAssay AID1648 (Sanford-Burnham Center for Chemical Genomics, 2009).
Active and inactive are the calls of the source. No rule for the calls is given here.

Biological target: Serine/threonine-protein kinase mTOR (Homo sapiens) (UniProt P42345)
Assay: mTOR FRB domain ligand binding – biophysical, NMR (AID 1648)
Conditions: NMR binding to FRB domain, chemical shift

Serine/threonine-protein kinase mTOR (Homo sapiens), sequence (P42345 2015-2114): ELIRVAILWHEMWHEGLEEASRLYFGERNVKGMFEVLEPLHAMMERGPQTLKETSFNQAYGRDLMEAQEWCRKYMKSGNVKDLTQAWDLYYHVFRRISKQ

Row | Compound | Kd
1 | C[C@@H]1CC[C@@]23CCC4(C)[C@@](C=CC5[C@@]6(C)CCC(=O)C(C)(C)C6CC[C@]54C)(OC2=O)C3[C@H]1C (stereo not given in full) | > 4 mM (inactive)
2 | COc1cccc(N2CCNCC2)c1 | > 4 mM (inactive)
3 | NC(=O)CSc1ncnc2ccccc12 | > 4 mM (inactive)
4 | COC(=O)c1ccc2nc[nH]c2c1 | > 4 mM (inactive)
5 | Nc1ccc(N2CCOCC2)c(Cl)c1 | > 4 mM (inactive)
6 | Cc1ccc(O)c(NC(=O)c2ccco2)c1 | > 4 mM (inactive)
7 | c1ccc(-c2noc(-c3ccc4c(c3)OCO4)n2)nc1 | > 4 mM (inactive)
8 | NC(=S)CN1CCCC1=O | > 4 mM (inactive)
9 | CSc1ccc(C(=S)N2CCN(C)CC2)cc1 | > 4 mM (inactive)
10 | CC(C)(O)[C@@H]1Cc2cc3ccc(=O)oc3cc2O1 | > 4 mM (inactive)
11 | COc1c2ccccc2nc2occc12 | > 4 mM (inactive)
12 | Cc1cc(C(=O)NCc2cccnc2)no1 | > 4 mM (inactive)
13 | O=C(O)CCc1ccc2c(c1)OCO2 | > 4 mM (inactive)
14 | CNC(=O)Oc1ccc2c(c1)[C@]1(C)CCN(C)[C@@H]1N2C | > 4 mM (inactive)
15 | Cc1n[nH]c(=S)n(/N=C/c2ccccc2)c1=O | > 4 mM (inactive)
16 | O=C1C2CC=CCC2C(=O)N1c1ccccc1O (stereo not given) | > 4 mM (inactive)
17 | O=C(O)Cn1c(C(F)(F)F)nc2ccccc21 | > 4 mM (inactive)
18 | COc1cc([C@@H]2c3cc4c(cc3[C@H](O)[C@H]3COC(=O)[C@@H]23)OCO4)cc(OC)c1OC | > 4 mM (inactive)
19 | COC(=O)C1CCc2ccccc2N1 (stereo not given) | > 4 mM (inactive)
20 | CC(=O)Nc1cnn(-c2ccccc2)c(=O)c1Cl | > 4 mM (inactive)
21 | Cc1nnc(SCc2ccon2)n1-c1ccccc1 | > 4 mM (inactive)
22 | OC1COCc2nc3ccccc3n2C1 (stereo not given) | > 4 mM (inactive)

Row | Compound | Kd
23 | Cc1ccc2c(C)c(C(=O)Nc3nnc(C)s3)oc2c1 | > 4 mM (inactive)
24 | Cn1c(=O)cc(N2CCCCC2)[nH]c1=O | > 4 mM (inactive)
25 | C=CCCCCCCCCCCCC(O)CC(O)COC(C)=O (stereo not given) | > 4 mM (inactive)
26 | CCOC(=O)Nc1ccc2c(C)cc(=O)oc2c1 | > 4 mM (inactive)
27 | CC(=O)c1c(O)n(C)c(=S)n(C)c1=O | > 4 mM (inactive)
28 | Cc1cc(Cl)ccc1NC(=O)C(N)=O | > 4 mM (inactive)
29 | Nc1cc(=O)[nH]c(=O)n1Cc1ccco1 | > 4 mM (inactive)
30 | Cn1nnc2c(N3CCC(C(N)=O)CC3)ncnc21 | > 4 mM (inactive)
31 | Cc1cc(NC(=O)Cc2cccs2)no1 | > 4 mM (inactive)
32 | Cc1cc2c(nn1)CCc1nonc1-2 | > 4 mM (inactive)
33 | O=c1cc(-c2ccc(O)cc2)oc2cc(O[C@@H]3O[C@H](CO)[C@@H](O)[C@H](O)[C@H]3O[C@@H]3OC[C@](O)(CO)[C@H]3O)cc(O)c12 | > 4 mM (inactive)
34 | Cn1c(SCC(=O)NCCO)nc2ccccc2c1=O | > 4 mM (inactive)
35 | CC(=O)Cc1nsc(NC(=O)c2ccc(C)cc2)n1 | > 4 mM (inactive)
36 | CC(CC(=O)O)n1cccn1 (stereo not given) | > 4 mM (inactive)
37 | CC(=O)c1c(O)cc(O)cc1O | > 4 mM (inactive)
38 | c1ccc(CCc2nc(-c3ccccn3)no2)cc1 | > 4 mM (inactive)
39 | Cc1n[nH]c(C)c1NC(=O)c1cccc(F)c1 | > 4 mM (inactive)
40 | Cn1cnnc1SCC(=O)Nc1nccs1 | > 4 mM (inactive)
41 | CC(=O)NCC1OCCc2ccccc21 (stereo not given) | > 4 mM (inactive)
42 | O=C(Nc1ccon1)c1ccccc1Cl | > 4 mM (inactive)
43 | CN1CCC(NC(=O)c2cnccn2)CC1 | > 4 mM (inactive)
44 | Nc1nc(SCC(=O)c2ccc([N+](=O)[O-])cc2)n[nH]1 | > 4 mM (inactive)

Row | Compound | Kd
45 | C=CCc1ccc(O)c(OC)c1 | > 4 mM (inactive)
46 | O=C(O)CCCNC(=O)c1ccccc1C(=O)O | > 4 mM (inactive)
47 | CCOC(=O)c1c(-c2ccncc2)csc1N | > 4 mM (inactive)
48 | COc1cc(OC)c(-c2c(OC)cc(OC)cc2OC)c(OC)c1 | > 4 mM (inactive)
49 | O=C1C2CC=CCC2C(=O)N1c1ccccc1 (stereo not given) | > 4 mM (inactive)
50 | CSc1ncnc2nc[nH]c12 | > 4 mM (inactive)
51 | O=[n+]1c2c(n([O-])c3ccccc31)CCCC2 | > 4 mM (inactive)
52 | O=C(NC(=O)N1CCOCC1)c1ccccc1 | > 4 mM (inactive)
53 | C/C=C/C(=O)Nc1ccc(NC(C)=O)cc1 | > 4 mM (inactive)
54 | O=[N+]([O-])c1ccc(/C=N/c2ncn[nH]2)cc1 | > 4 mM (inactive)
55 | Cc1occc1C(=O)Nc1ccc2c(c1)CCC2 | > 4 mM (inactive)
56 | Cc1cc(C(=O)N2CCN(c3ccccn3)CC2)c(C)o1 | > 4 mM (inactive)
57 | Oc1ccc2c(c1)OCO2 | > 4 mM (inactive)
58 | Cc1cc(C(=O)Nc2ccc3c(c2)OCCO3)c(C)o1 | > 4 mM (inactive)
59 | Cc1cc(NC(=O)c2ccc3c(c2)OCCO3)no1 | > 4 mM (inactive)
60 | Cn1nc(C(=O)N2CCOCC2)c2ccccc2c1=O | > 4 mM (inactive)
61 | O=C(c1ccc(F)cc1)C1CCNCC1 | > 4 mM (inactive)
62 | NC(=O)N1CCc2ccccc21 | > 4 mM (inactive)
63 | O=c1cnnc(N2CCCCC2)[nH]1 | > 4 mM (inactive)
64 | COc1ccc2c(c1)c1n[nH]c(=S)nc1n2C | > 4 mM (inactive)
65 | Cc1nc2cc(NC(=O)Nc3nccs3)ccc2n1C | > 4 mM (inactive)
66 | O=C(C1CCCCC1)N1CCN(c2ccccc2F)CC1 | > 4 mM (inactive)

Row | Compound | Kd
67 | COc1ccc(N/C(N)=N\c2nc(C)cc(C)n2)cc1 | > 4 mM (inactive)
68 | C=C1C2CC[C@@]3(C)[C@H](c4ccoc4)OC(=O)C[C@]13O[C@H]1CC(=O)C(C)(C)C(CC(=O)OC)C21C (stereo not given in full) | > 4 mM (inactive)
69 | COc1cc2c(cc1OC)[C@@]13CCN4CC5=CCOC6CC(=O)N2C1[C@H]6[C@H]5C[C@H]43 (stereo not given in full) | > 4 mM (inactive)
70 | COc1cc2occc2c2oc(=O)ccc12 | > 4 mM (inactive)
71 | Cn1c(O)c(C2=NC(=S)NC2=O)c2ccccc21 | > 4 mM (inactive)
72 | Cc1cc(=O)[nH]c(N2CCCCC2)n1 | > 4 mM (inactive)
73 | CC(C)CCCC(C)[C@H]1CCC2C3CC=C4C[C@@H](O)CC[C@]4(C)C3CC[C@@]21C (stereo not given in full) | > 4 mM (inactive)
74 | Cn1cccc1C(=S)N1CCOCC1 | > 4 mM (inactive)
75 | COc1ccc2[nH]c(O)c(NC(C)=O)c2c1 | > 4 mM (inactive)
76 | Cc1cccc(N2C(=O)CCC2=O)n1 | > 4 mM (inactive)
77 | CC(=O)O[C@H]1C(=O)[C@@]2(C)C([C@H](OC(=O)c3ccccc3)[C@]3(O)C[C@H](OC(=O)[C@H](O)[C@@H](NC(=O)c4ccccc4)c4ccccc4)C(C)=C1C3(C)C)[C@]1(OC(C)=O)CO[C@@H]1C[C@@H]2O (stereo not given in full) | > 4 mM (inactive)
78 | O=C(NN1CCOCC1)c1ccccc1F | > 4 mM (inactive)
79 | S=C(NC1CC1)NN1CCOCC1 | > 4 mM (inactive)
80 | Cc1ccc2cc(CO)ccc2n1 | > 4 mM (inactive)
81 | CC1(C)CCC(C)(C)c2cc(C(=O)O)ccc21 | > 4 mM (inactive)
82 | Cc1ccc(N2C(=O)CC(Sc3ncn[nH]3)C2=O)cc1 (stereo not given) | > 4 mM (inactive)
83 | O=C(Nc1nncs1)Oc1ccccc1 | > 4 mM (inactive)
84 | OC12CC3CC(C1)C1(NCCS1)C(C3)C2 (stereo not given) | > 4 mM (inactive)
85 | CC(=O)NCCc1cc2ccc(C)c(C)c2[nH]c1=O | > 4 mM (inactive)
